From patent US11071300B2, “Pesticidally active pyrazole derivatives” (SYNGENTA PARTICIPATIONS AG, priority 2017, dated 2021)
Like-named read-outs stand apart in the source and are kept apart here.

How the values were obtained:
Assay type in all cases: in vivo
Plutella xylostella = Plutella xylostella (diamond back moth) artificial diet test; conditions: 120 h, read-out: control (mortality and growth inhibition)
Description: Plutella xylostella (Diamond Back Moth):
(§1) 24-well microtiter plates with artificial diet were treated with aqueous test solutions prepared from 10′000 ppm DMSO stock solutions by pipetting. After drying, the plates were infested with L2 larvae (10 to 15 per well). The samples were assessed for mortality and growth inhibition in comparison to untreated samples 5 days after infestation.

Spodoptera littoralis = Spodoptera littoralis (Egyptian cotton leaf worm) leaf disc test; conditions: foliar, 72 h, read-out: control (at least one of mortality, anti-feedant effect, growth inhibition); for percent control (mortality, anti-feedant effect or growth inhibition) at 200 ppm: application rate 200 ppm, cotton leaf discs sprayed, L1 larvae, 3 days after infestation
Description: Spodoptera littoralis (Egyptian Cotton Leaf Worm)
Cotton leaf discs were placed on agar in 24-well microtiter plates and sprayed with aqueous test solutions prepared from 10′000 ppm DMSO stock solutions. After drying the leaf discs were infested with five L1 larvae. The samples were assessed for mortality, anti-feedant effect, and growth inhibition in comparison to untreated samples 3 days after infestation. Control of Spodoptera littoralis by a test sample is when at least one of mortality, anti-feedant effect, and growth inhibition is higher than the untreated sample.

Tetranychus urticae = Tetranychus urticae (two-spotted spider mite) leaf disc test; conditions: foliar, 192 h, application rate 200 ppm, bean leaf discs sprayed, 8 days after infestation, read-out: control (mortality on mixed population, mobile stages)
Description: Tetranychus urticae (Two-Spotted Spider Mite):
Bean leaf discs on agar in 24-well microtiter plates were sprayed with aqueous test solutions prepared from 10′000 ppm DMSO stock solutions. After drying the leaf discs were infested with a mite population of mixed ages. The samples were assessed for mortality on mixed population (mobile stages) 8 days after infestation.

Diabrotica Balteata = assay: Diabrotica balteata (corn root worm) maize sprout test; conditions: 96 h, read-out: control (mortality and growth inhibition)
Description: Diabrotica Balteata, (Corn Root Worm)
as §1, with “Maize sprouts, placed on an agar layer in 24-well” for “24-well”, “plates” for “plates with artificial diet”, “spraying.” for “pipetting.”, “(6” for “(10”, “10” for “15”, “4” for “5”

Thrips tabaci = Thrips tabaci (onion thrips) leaf disc test; conditions: foliar, 144 h, read-out: control (mortality)
Description: Thrips tabaci (Onion Thrips):
Sunflower leaf discs were placed on agar in 24-well microtiter plates and sprayed with aqueous test solutions prepared from 10′000 ppm DMSO stock solutions. After drying the leaf discs were infested with a thrips population of mixed ages. The samples were assessed for mortality 6 days after infestation.

[1] = application rate 200 ppm, artificial diet, L2 larvae, 5 days after infestation
[2] = application rate 200 ppm, maize sprouts sprayed, L2 larvae, 4 days after infestation
[3] = application rate 200 ppm, sunflower leaf discs sprayed, mixed ages, 6 days after infestation

CCN(C(=O)c1cc(-c2cc(-c3c(C(F)(F)F)c(OS(=O)(=O)C(F)(F)C(F)(F)C(F)(F)C(F)(F)F)nn3C)no2)ccc1Cl)C1(C#N)CC1 [Compound 44, [5-[5-[4-chloro-3-[(1-cyanocyclopropyl)-ethyl-carbamoyl]phenyl]isoxazol-3-yl]-1-methyl-4-(trifluoromethyl)pyrazol-3-yl] 1,1,2,2,3,3,4,4,4-nonafluorobutane-1-sulfonate]
≥ 80%: mortality at 200 ppm (Plutella xylostella) | percent control (mortality, anti-feedant effect or growth inhibition) at 200 ppm (Spodoptera littoralis)

Cn1nc(OS(=O)(=O)C(F)(C(F)(F)F)C(F)(F)F)c(C(F)(F)F)c1-n1cc(-c2ccc(Cl)c(C(N)=O)c2)cn1 [Compound 67, [5-[4-(3-carbamoyl-4-chloro-phenyl)pyrazol-1-yl]-1-methyl-4-(trifluoromethyl)pyrazol-3-yl] 1,1,1,2,3,3,3-heptafluoropropane-2-sulfonate]
≥ 80%: mortality at 200 ppm (Plutella xylostella; [1]) | percent control (mortality, anti-feedant effect or growth inhibition) at 200 ppm (Spodoptera littoralis) | mortality at 200 ppm (Tetranychus urticae)

CN(C(=O)c1cc(-c2cnn(-c3c(C(F)(F)F)c(OS(=O)(=O)C(F)(F)C(F)(F)C(F)(F)C(F)(F)F)nn3C)c2)ccc1Cl)C1CC1 [Compound 15, [5-[4-[4-chloro-3-[cyclopropyl(methyl)carbamoyl]phenyl]pyrazol-1-yl]-1-methyl-4-(trifluoromethyl)pyrazol-3-yl] 1,1,2,2,3,3,4,4,4-nonafluorobutane-1-sulfonate]
≥ 80%: mortality at 200 ppm (Plutella xylostella) | mortality at 200 ppm (Diabrotica Balteata) | percent control (mortality, anti-feedant effect or growth inhibition) at 200 ppm (Spodoptera littoralis)

Cn1nc(OS(=O)(=O)C(F)(F)C(F)(F)C(F)(F)C(F)(F)F)c(C(F)(F)F)c1-n1cc(-c2cnc(Cl)c(C(=O)NC3(C#N)CC3)c2)cn1 [Compound 30, [5-[4-[6-chloro-5-[(1-cyanocyclopropyl)carbamoyl]-3-pyridyl]pyrazol-1-yl]-1-methyl-4-(trifluoromethyl)pyrazol-3-yl] 1,1,2,2,3,3,4,4,4-nonafluorobutane-1-sulfonate]
≥ 80%: mortality at 200 ppm (Plutella xylostella) | mortality at 200 ppm (Diabrotica Balteata) | percent control (mortality, anti-feedant effect or growth inhibition) at 200 ppm (Spodoptera littoralis)

CN(C(=O)c1cc(-c2cnn(-c3c(C(F)(F)F)c(OS(=O)(=O)C(F)(F)C(F)(F)F)nn3C)c2)ccc1Cl)C1CC1 [Compound 16, [5-[4-[4-chloro-3-[cyclopropyl(methyl)carbamoyl]phenyl]pyrazol-1-yl]-1-methyl-4-(trifluoromethyl)pyrazol-3-yl] 1,1,2,2,2-pentafluoroethanesulfonate]
≥ 80%: mortality at 200 ppm (Plutella xylostella; [1]) | mortality at 200 ppm (Diabrotica Balteata; [2]) | percent control (mortality, anti-feedant effect or growth inhibition) at 200 ppm (Spodoptera littoralis)

CN(C(=O)c1cc(-c2cc(-c3c(C(F)(F)F)c(OS(=O)(=O)C(F)(F)C(F)(F)C(F)(F)C(F)(F)F)nn3C)no2)ccc1Cl)C1(C#N)CC1 [Compound 43, [5-[5-[4-chloro-3-[(1-cyanocyclopropyl)-methyl-carbamoyl]phenyl]isoxazol-3-yl]-1-methyl-4-(trifluoromethyl)pyrazol-3-yl] 1,1,2,2,3,3,4,4,4-nonafluorobutane-1-sulfonate]
≥ 80%: mortality at 200 ppm (Plutella xylostella) | mortality at 200 ppm (Diabrotica Balteata) | mortality at 200 ppm (Thrips tabaci) | percent control (mortality, anti-feedant effect or growth inhibition) at 200 ppm (Spodoptera littoralis)

CN(C(=O)c1cc(-c2cnn(-c3c(C(F)(F)F)c(OS(=O)(=O)C(F)(F)C(F)(F)C(F)(F)C(F)(F)F)nn3C)c2)cnc1Cl)C1CC1 [Compound 28, [5-[4-[6-chloro-5-[cyclopropyl(methyl)carbamoyl]-3-pyridyl]pyrazol-1-yl]-1-methyl-4-(trifluoromethyl)pyrazol-3-yl] 1,1,2,2,3,3,4,4,4-nonafluorobutane-1-sulfonate]
≥ 80%: mortality at 200 ppm (Plutella xylostella) | mortality at 200 ppm (Diabrotica Balteata) | mortality at 200 ppm (Thrips tabaci) | percent control (mortality, anti-feedant effect or growth inhibition) at 200 ppm (Spodoptera littoralis)

Cn1nc(OS(=O)(=O)C(F)(C(F)(F)F)C(F)(F)F)c(C(F)(F)F)c1-n1cc(-c2cnc(Cl)c(C(=O)NC3(C#N)CC3)c2)cn1 [Compound 24, [5-[4-[6-chloro-5-[(1-cyanocyclopropyl)carbamoyl]-3-pyridyl]pyrazol-1-yl]-1-methyl-4-(trifluoromethyl)pyrazol-3-yl] 1,1,1,2,3,3,3-heptafluoropropane-2-sulfonate]
≥ 80%: mortality at 200 ppm (Plutella xylostella; [1]) | mortality at 200 ppm (Diabrotica Balteata; [2]) | percent control (mortality, anti-feedant effect or growth inhibition) at 200 ppm (Spodoptera littoralis) | mortality at 200 ppm (Tetranychus urticae)

CN(C(=O)c1cc(-c2cnn(-c3c(C(F)(F)F)c(OS(=O)(=O)C(F)(F)C(F)(F)C(F)(F)C(F)(F)F)nn3C)c2)cnc1Cl)C1(C#N)CC1 [Compound 31, [5-[4-[6-chloro-5-[(1-cyanocyclopropyl)-methyl-carbamoyl]-3-pyridyl]pyrazol-1-yl]-1-methyl-4-(trifluoromethyl)pyrazol-3-yl] 1,1,2,2,3,3,4,4,4-nonafluorobutane-1-sulfonate]
≥ 80%: mortality at 200 ppm (Plutella xylostella) | mortality at 200 ppm (Diabrotica Balteata) | mortality at 200 ppm (Thrips tabaci) | percent control (mortality, anti-feedant effect or growth inhibition) at 200 ppm (Spodoptera littoralis)

CCN(C(=O)c1cc(-c2cnn(-c3c(C(F)(F)F)c(OS(=O)(=O)C(F)(F)C(F)(F)C(F)(F)C(F)(F)F)nn3C)c2)ccc1Cl)C1CC1 [Compound 13, [5-[4-[4-chloro-3-[cyclopropyl(ethyl)carbamoyl]phenyl]pyrazol-1-yl]-1-methyl-4-(trifluoromethyl)pyrazol-3-yl] 1,1,2,2,3,3,4,4,4-nonafluorobutane-1-sulfonate]
≥ 80%: mortality at 200 ppm (Plutella xylostella) | mortality at 200 ppm (Diabrotica Balteata) | mortality at 200 ppm (Thrips tabaci) | percent control (mortality, anti-feedant effect or growth inhibition) at 200 ppm (Spodoptera littoralis)

CN(C(=O)c1cc(-c2cnn(-c3c(C(F)(F)F)c(OS(=O)(=O)C(F)(F)C(F)(F)F)nn3C)c2)ccc1Cl)C1(C#N)CC1 [Compound 7, [5-[4-[4-chloro-3-[(1-cyanocyclopropyl)-methyl-carbamoyl]phenyl]pyrazol-1-yl]-1-methyl-4-(trifluoromethyl)pyrazol-3-yl] 1,1,2,2,2-pentafluoroethanesulfonate]
≥ 80%: mortality at 200 ppm (Plutella xylostella; [1]) | mortality at 200 ppm (Diabrotica Balteata; [2]) | mortality at 200 ppm (Thrips tabaci; [3]) | percent control (mortality, anti-feedant effect or growth inhibition) at 200 ppm (Spodoptera littoralis)

Cn1nc(OS(=O)(=O)C(F)(F)C(F)(F)C(F)(F)C(F)(F)F)c(C(F)(F)F)c1-c1cc(-c2ccc(Cl)c(C(=O)NC3CC3)c2)on1 [Compound 39, [5-[5-[4-chloro-3-(cyclopropylcarbamoyl)phenyl]isoxazol-3-yl]-1-methyl-4-(trifluoromethyl)pyrazol-3-yl] 1,1,2,2,3,3,4,4,4-nonafluorobutane-1-sulfonate]
≥ 80%: mortality at 200 ppm (Plutella xylostella) | mortality at 200 ppm (Diabrotica Balteata)

Cn1nc(OS(=O)(=O)F)c(C(F)(F)F)c1-n1cc(-c2ccc(Cl)c(C(=O)NC3CC3)c2)cn1 [Compound 4, 5-[4-[4-chloro-3-(cyclopropylcarbamoyl)phenyl]pyrazol-1-yl]-3-fluorosulfonyloxy-1-methyl-4-(trifluoromethyl)pyrazole]
≥ 80%: mortality at 200 ppm (Spodoptera littoralis)

CN(C(=O)c1cc(-c2cnn(-c3c(C(F)(F)F)c(OS(=O)(=O)C(F)(F)C(F)(F)Cl)nn3C)c2)ccc1Cl)C1CC1 [Compound 11, [5-[4-[4-chloro-3-[cyclopropyl(methyl)carbamoyl]phenyl]pyrazol-1-yl]-1-methyl-4-(trifluoromethyl)pyrazol-3-yl] 2-chloro-1,1,2,2-tetrafluoro-ethanesulfonate]
≥ 80%: mortality at 200 ppm (Plutella xylostella; [1]) | mortality at 200 ppm (Diabrotica Balteata; [2]) | mortality at 200 ppm (Thrips tabaci; [3]) | percent control (mortality, anti-feedant effect or growth inhibition) at 200 ppm (Spodoptera littoralis)
